SMILES strings stand for the structures. pIC50: −log10 of the molar value. Calls of active or inactive are those of the source. The rule behind the calls is not given here.

One assay deals with T1, Polyunsaturated fatty acid 5-lipoxygenase (Homo sapiens, UniProt P09917).
T1 sequence (P09917 whole entry): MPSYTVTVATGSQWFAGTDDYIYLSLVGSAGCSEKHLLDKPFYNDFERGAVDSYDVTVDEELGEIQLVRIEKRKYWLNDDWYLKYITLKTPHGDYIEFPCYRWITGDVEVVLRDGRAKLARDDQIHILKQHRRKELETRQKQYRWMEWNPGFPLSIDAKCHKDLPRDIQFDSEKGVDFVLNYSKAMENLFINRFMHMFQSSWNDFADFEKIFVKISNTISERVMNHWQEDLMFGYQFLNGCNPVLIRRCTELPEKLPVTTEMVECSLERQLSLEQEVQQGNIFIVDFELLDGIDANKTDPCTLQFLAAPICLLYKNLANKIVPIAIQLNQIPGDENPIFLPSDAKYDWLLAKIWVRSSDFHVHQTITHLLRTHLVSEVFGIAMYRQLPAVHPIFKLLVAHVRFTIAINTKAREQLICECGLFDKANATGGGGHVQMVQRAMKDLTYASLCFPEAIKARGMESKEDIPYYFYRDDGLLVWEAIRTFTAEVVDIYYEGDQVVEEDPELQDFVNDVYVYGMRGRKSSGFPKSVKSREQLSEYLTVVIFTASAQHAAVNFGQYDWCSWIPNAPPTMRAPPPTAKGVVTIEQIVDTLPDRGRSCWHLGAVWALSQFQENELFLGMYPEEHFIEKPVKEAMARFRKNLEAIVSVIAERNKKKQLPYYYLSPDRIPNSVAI
Briefly: Inhibition of recombinant human 5-lipoxygenase using arachidonic acid as substrate preincubated for 10 mins followed by susbtrate addition and measured after 10 mins by reverse phase HPLC method.
Take `NC[C@H](CCCCNC(=O)c1cccc(O)c1O)NC(=O)c1c(O)cccc1F`: the pIC50 – broadly, the negative decadic logarithm of the IC50, by convention in mol/L – is 5.03. On the same count and under the same terms, then `NC[C@H](CCCCNC(=O)c1ccccc1O)NC(=O)c1cccc(O)c1O`, with 5.00; and `NC[C@H](CCCCNC(=O)c1cccc(O)c1O)NC(=O)c1cccc(O)c1O`, with 5.85; and `O=C(NCCCC[C@H]1CN=C(c2cccc(O)c2O)N1)c1cccc(O)c1O`, with 6.05. Turning to `O=C(NCCCC[C@H]1CN=C(c2cccc(O)c2O)N1)c1c(O)cccc1F`, the pIC50 is 5.96. Turning to `O=C(NCCCC[C@H]1CN=C(c2ccccc2O)N1)c1cccc(O)c1O`, the pIC50 is 5.82. On the same count and under the same terms, then `NC[C@H](CCCCNC(=O)c1cccc(O)c1O)NC(=O)c1ccccc1O`, with 5.25; and `O=C(NCCCC[C@H]1CN=C(c2c(O)cccc2F)N1)c1cccc(O)c1O`, with 5.66.

In the case of `O=C(NCCCC[C@@H](CO)NC(=O)c1cccc(O)c1O)c1cccc(O)c1O`, the pIC50 was 5.72. With `NC[C@H](CCCCNC(=O)c1ccccc1O)NC(=O)c1ccccc1O`, the pIC50 is less than 5.00.

Turning to `O=C(NCCCC[C@H]1CN=C(c2ccccc2O)N1)c1ccccc1O`, the pIC50 is less than 5.00. Still for that read-out and setting: then `O=C(NCCCC[C@H]1CN=C(c2cccc(O)c2O)N1)c1ccccc1O`, with 5.66. Still for that read-out and setting: then `NC[C@H](CCCCNC(=O)c1c(O)cccc1F)NC(=O)c1cccc(O)c1O`, with less than 5.00.

The target of the next assay is T2, Polyunsaturated fatty acid 5-lipoxygenase (Homo sapiens) (UniProt P09917).
T2 sequence (whole entry): T1 sequence (P09917 whole entry)
Briefly: Inhibition of recombinant human 5-lipoxygenase at <10 uM using arachidonic acid as substrate preincubated for 10 mins followed by susbtrate addition and measured after 10 mins by reverse phase HPLC method.
In the case of `NC[C@H](CCCCNC(=O)c1ccccc1O)NC(=O)c1ccccc1O`, the inhibition entry was “inactive”. Still for that read-out and setting: the result for `NC[C@H](CCCCNC(=O)c1c(O)cccc1F)NC(=O)c1cccc(O)c1O` reads “inactive”.

The values are drawn from ChEMBL document CHEMBL4414569, “Myxochelin- and Pseudochelin-Derived Lipoxygenase Inhibitors from a Genetically Engineered Myxococcus xanthus Strain” (J Nat Prod, 2019).
